From patent US20250346643A1, “TROPOMYOSIN KINASE RECEPTOR (TRK) LIGANDS AS THERAPEUTICS TO SUPPORT LIVER REGENERATION” (Vanderbilt University, priority 2024, published 2025)

Key:
CCND1 = test: Western blot of CCND1 in AML12 cell lysates; assay type: cell-based, mouse; details: AML12 (FIG. 9I-J)
Description: Human HepG2 and mouse AML12 cells were grown in 6-well plates. Cells were treated with NTF3 (20 ng/ml) purchased from STEMCELL technologies, Vancouver, Canada (cat. 78074), R&D Systems, Minneapolis, MN (267-N3), Gibco, Waltham, MA (PHC7036) and/or Loxo-195 (5-10 nM) (Selleckchem, Houston, TX; S8636) in complete growth media without L-glutamine for 2 hours. Lyophilized NTF3 was solubilized with sterile filtered PBS supplemented with 0.1% BSA, aliquoted and stored at −80° C. until use. […] HepG2 and AML12 cells were collected on ice in PBS, centrifuged for 10 sec […] cell pellet homogenized in RIPA buffer containing inhibitors (Roche, Basel, Switzerland; complete Mini proteinase inhibitor, 1×HALT phosphatase inhibitors, Thermo Scientific, Waltham, MA; cat. 78428). Cell lysates were sonicated and centrifuged for 10 min at 18,800×g. Protein concentration of supernatants were determined by Direct Detect Spectrophotometer (MilliporeSigma, Burlington, MA).
For immunoblot analysis, 30-50 μg of protein diluted in LSD sample buffer (Invitrogen, Waltham, MA) were analyzed per SDS-PAGE (NuPAGE™, Invitrogen, Waltham, MA) using MOPS buffer or MES buffer (Invitrogen, Waltham, MA). […] Semi-quantitative band densitometry was performed using ImageJ software (version 1.53).

CCND1 and PCNA = test: Immunoblotting of mpPHH for CCND1 and PCNA; assay type: cell-based, human; details: mpPHHs, NTF3
Description: Mouse passaged primary human hepatocytes. Mouse-passaged primary human hepatocytes (mpPHHs) were collected as previously described (Michailidis et al., Proc Natl Acad Sci USA. 2020; 117(3): 1678-1688) and cultured in hepatocyte culture media (CC-3198, Lonza, Basel, Switzerland) in collagen-coated chamber slides. Three days before treatment, mpPHH were incubated in William's E media (with L-glutamine). […] 5-15 images per treatment per experiment were randomly taken and EdU positive nuclei quantified.
Immunoblotting. […] Protein concentration of supernatants was determined by Direct Detect Spectrophotometer (MilliporeSigma, Burlington, MA). […] The protein concentration of supernatants was determined by a Direct Detect® spectrophotometer (MilliporeSigma, Burlington, MA). For immunoblot analysis, 10 to 50 μg of protein diluted in […] sample buffer (Invitrogen, Waltham, MA) were analyzed per SDS-polyacrylamide gel electrophoresis (NuPAGE™, Invitrogen, Waltham, MA) using Mops buffer or MES buffer (Invitrogen, Waltham, MA). […] Semi-quantitative band densitometry was performed using ImageJ software (version 1.53).

HepG2 cells = test: Cell proliferation assay (CellTiter-Glo) in HepG2 cells; assay type: cell-based, human; details: NTF3 20 ng/ml, HepG2 (FIG. 8G-H)
Description: Cell lines. Human HepG2 (ATCC HB-8065) were maintained in MEM media with 10% FBS and the mouse hepatocyte cell line AML12 (ATCC, Manassas, VA; CRL-2254) in DMEM/F12 media supplemented with dexamethasone (40 ng/ml) and Insulin-Transferrin-Selenium (Gibco, Waltham, MA; 41400045), containing 10% FBS and 1% penicillin and streptomycin. JS1 (RRID: CVCL_C7PL), LX2 (RRID: CVCL_5792, MilliporeSigma, Burlington, MA; SCC064) and TWNT4 (RRID: CVCL_W296) cells were cultured in DMEM supplemented with 10% FBS. 293T cells (ATCC, Manassas, VA; CRL-3216) were cultured in DMEM supplemented with 10% FBS.
Cell proliferation assays. Primary mouse hepatocytes, HepG2 or AML 12 cells were grown in opaque-walled 96-well plates. NTF3 (final concentration 20 ng/ml) (STEMCELL Technologies, Vancouver, Canada; cat. 78074) and/or Loxo-195 (final concentration 5 nM) (Selleckchem, Houston, TX; S8636) were added into complete growth media without L-glutamine. Primary mouse hepatocytes were also grown in serum-free William's E media without supplements. Cells were analyzed by CellTiter-Glo® (Promega G7570, Madison, WI) which detects the number of viable cells on day 0 to day 5 by on detection systems GloMax® (Promega) or Bioteck Synergy H1 (Agilent, Santa Clara, CA). Mouse recombinant HGF (Abcam, Cambridge, UK; ab281797) was added to cell culture media at a final concentration 5 ng/ml. […]

Substance: NTF3: neurotrophin-3, recombinant protein; HSC-derived hepatocyte mitogen, ligand of TRKA, TRKB, TRKC
- CCND1 amounts, NTF3 from three different vendors (CCND1): CCND1 amounts increased
- CCND1 and PCNA (immunoblotting) (CCND1 and PCNA): induced CCND1 and PCNA
- cell proliferation (HepG2 cells): greatly stimulated cell proliferation
